Earlier results in US20140147381A1, “89ZR COMPOUNDS, TO INCLUDE SOMATOSTATIN, APPARATUS AND PRODUCTS COMPRISING SUCH COMPOUNDS, METHODS OF MAKING SAME, AND METHODS OF USING SAME FOR RADIO IMAGING AND/OR TREATMENT” (priority 2012, published 2014).

Tests used:
[1] = small-animal PET
[2] = in vitro
carcinoid tumors = conditions: carcinoid patients

For [^89Zr]-DFO, the “excreted rapidly via the kidneys within” value [1] is listed as less than 20 min and the “stable with respect to ligand dissociation in human serum” value [2] is listed as greater than 7 days.

In the case of `[Cl][89Zr]([Cl])([Cl])[Cl]` [[^89Zr]-chloride], the site of accumulation ([1]; free 89Zr(IV) ions) is given as “accumulate in the liver”.

In the case of Interferon, the biochemical response rate (carcinoid tumors) is given as 40% and the tumor response rate (carcinoid tumors) is given as 12%.
